Measured values published in patent publication US20240409552A1, “GUAIANOLIDE OLIGOMERS, PREPARATION METHOD AND APPLICATION” (KUNMING INSTITUTE OF BOTANY, CHINESE ACADEMY OF SCIENCES, priority 2021, published 2024).
pIC50: −log10 of the molar value.

Columns and labels:
Assay type in all cases: cell-based
HepG2 cells = experiment: MTT antihepatoma assay, HepG2 cells; settings: Homo sapiens, 48 h incubation
Protocol: (§1) • (1). […] The plates were measured at 490 nm using a microplate reader (BIO-RAD, USA). The inhibitory ratio was calculated as [(A490 negative−A490 treated)/(A490 negative−A490 blank)]×100%. The IC50 values were calculated with GraphPad Prism 5 (GraphPad Software, California, USA). Repeat the experiment three times.

Huh7 cells = experiment: MTT antihepatoma assay, Huh7 cells; settings: Homo sapiens, Huh-7, 48 h incubation
Protocol: as §1

SK-Hep-1 cells = experiment: MTT antihepatoma assay, SK-Hep-1 cells; settings: Homo sapiens, SK-HEP1, 48 h incubation
Protocol: as §1

Row | Structure (SMILES) | pIC50 (HepG2 cells) | pIC50 (Huh7 cells) | pIC50 (SK-Hep-1 cells)
1 | CNC(=O)c1cc(Oc2ccc(NC(=O)Nc3ccc(Cl)c(C(F)(F)F)c3)cc2)ccn1 [sorafenib, reference compound] | 4.89 | 4.96 | 4.65
2 | C=C1C(=O)O[C@@H]2C3=C([C@H]4C[C@]3(C)[C@]3(C4)C(=O)O[C@H]4[C@H]3CCC(C)=C3C[C@H]5O[C@@]5(C)[C@@H]34)[C@@](C)(O)CC[C@@H]12 [Compound 1] | 4.89 | 4.69 | 4.95
3 | C=C1C(=O)O[C@@H]2C3=C([C@H]4C[C@]3(C)[C@]3(C4)C(=O)O[C@@H]4C5=C([C@H]6C[C@]5(C)[C@]5(C6)C(=O)O[C@@H]6[C@H]7C(C)=CC[C@@]78O[C@@]8(C)CC[C@H]65)[C@@](C)(O)CC[C@H]43)[C@@](C)(O)CC[C@@H]12 [Compound 3] | 5.21 | 5.17 | 5.14
4 | C=C1C(=O)O[C@@H]2C3=C([C@H]4C[C@]3(C)[C@]3(C4)C(=O)O[C@@H]4C5=C([C@H]6C[C@]5(C)[C@]5(C6)C(=O)O[C@@H]6C7=C([C@H]8C[C@]7(C)[C@]7(C8)C(=O)O[C@@H]8[C@H]9C(C)=CC[C@@]9%10O[C@@]%10(C)CC[C@@H]87)[C@@](C)(O)CC[C@H]65)[C@@](C)(O)CC[C@H]43)[C@@](C)(O)CC[C@@H]12 [Compound 4] | 4.83 | 4.96 | 5.10
5 | C=C1C(=O)O[C@@H]2C3=C([C@H]4C[C@]3(C)[C@]3(C4)C(=O)O[C@@H]4C5C(=C(C)CC[C@H]43)CC[C@@]5(C)O)[C@@](C)(O)CC[C@@H]12 (stereo partly drawn) [Compound 2] | 5.23 | 4.92 | 4.78
